The assay deals with angiotensin converting enzyme (Homo sapiens, UniProt P12821). The experiment in a line: inhibition of angiotensin converting enzyme (cleavage of angiotensin I or a related synthetic peptide by ACE). In kind it is biochemical. The source says: ACE is the enzyme which converts angiotensin I to angiotensin II.
Chain of angiotensin converting enzyme (P12821 30-1306, species assumed): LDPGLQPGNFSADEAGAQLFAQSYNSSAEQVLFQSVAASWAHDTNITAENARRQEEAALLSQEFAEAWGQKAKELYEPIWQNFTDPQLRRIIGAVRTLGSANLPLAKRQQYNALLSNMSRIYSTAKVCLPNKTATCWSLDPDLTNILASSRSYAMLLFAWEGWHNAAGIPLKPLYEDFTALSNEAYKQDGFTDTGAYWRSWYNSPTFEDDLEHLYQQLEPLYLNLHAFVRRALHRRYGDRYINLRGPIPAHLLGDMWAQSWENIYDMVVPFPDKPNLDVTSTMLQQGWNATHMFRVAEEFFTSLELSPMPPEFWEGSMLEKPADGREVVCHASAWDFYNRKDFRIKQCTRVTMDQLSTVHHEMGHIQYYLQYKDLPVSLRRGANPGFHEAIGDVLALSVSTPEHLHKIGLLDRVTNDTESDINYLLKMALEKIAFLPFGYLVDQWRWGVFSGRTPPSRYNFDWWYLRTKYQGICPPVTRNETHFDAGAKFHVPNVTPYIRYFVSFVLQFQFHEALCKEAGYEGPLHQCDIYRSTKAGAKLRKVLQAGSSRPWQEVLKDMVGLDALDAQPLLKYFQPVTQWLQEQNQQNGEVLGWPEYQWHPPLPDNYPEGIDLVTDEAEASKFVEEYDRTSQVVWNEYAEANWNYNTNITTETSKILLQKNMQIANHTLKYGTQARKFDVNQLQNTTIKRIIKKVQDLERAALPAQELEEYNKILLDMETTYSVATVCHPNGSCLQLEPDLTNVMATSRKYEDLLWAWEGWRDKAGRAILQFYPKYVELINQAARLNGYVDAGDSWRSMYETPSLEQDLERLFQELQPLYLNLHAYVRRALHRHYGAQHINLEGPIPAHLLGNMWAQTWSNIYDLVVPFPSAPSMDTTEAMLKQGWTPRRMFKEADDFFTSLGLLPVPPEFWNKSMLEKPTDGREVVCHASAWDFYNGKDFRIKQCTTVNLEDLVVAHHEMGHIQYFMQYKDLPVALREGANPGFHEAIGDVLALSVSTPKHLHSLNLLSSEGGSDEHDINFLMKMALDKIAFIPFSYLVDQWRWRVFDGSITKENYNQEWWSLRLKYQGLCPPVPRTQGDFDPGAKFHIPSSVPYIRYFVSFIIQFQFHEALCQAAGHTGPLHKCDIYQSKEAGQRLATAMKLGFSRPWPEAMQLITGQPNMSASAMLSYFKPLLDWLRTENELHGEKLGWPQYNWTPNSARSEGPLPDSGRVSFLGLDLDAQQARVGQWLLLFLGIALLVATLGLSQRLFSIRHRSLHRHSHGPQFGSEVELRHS

For `CC(CC(=O)C(Cc1ccccc1)NC(=O)c1ccccc1)C(=O)N1CCC[C@H]1C(=O)OC(C)(C)C` (single isomer, unassigned) [Compound No. 6A], under “relative to the more polar isomer (Compound No. 6B), isomers at the 2-carbon atom of the hexanoyl chain”, the “times more active as an inhibitor of angiotensin converting enzyme” value was 10 times.
Consider `CC(CC(=O)C(Cc1ccccc1)NC(=O)c1ccccc1)C(=O)N1CCC[C@H]1C(=O)OC(C)(C)C` (single isomer, unassigned) [Compound No. 6C], for which, under “relative to the less polar isomer (Compound No. 6D), isomers at the 5-carbon atom of the hexanoyl chain”, the “times more active as an inhibitor or angiotensin converting enzyme” value is recorded as 100 times.

The record behind these values is EP0045161A1, “Amides of 4-oxo-5-amidohexanoic acid derivatives” (IMPERIAL CHEMICAL INDUSTRIES PLC, priority 1980, dated 1982).
